Measured values from the supplement of paper PMC10307832.

Key:
Experiment in all cases: relative viability (nuclei count vs DMSO), 5 days (fraction); higher = more cells survive
[1] = compound: O=c1ncccn1[C@@H]1O[C@H](CO)[C@@H](O)[C@H]1O [Zebularine] + COc1cccc2cc(-c3nc([C@H]4CC[C@H](C(=O)O)CC4)n4ncnc(N)c34)[nH]c12 [OSI-027] (partner 0.5 µM)
Summary of the method: (§1)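 Lung cancer cell lines in 1536-well plates got either a single drug or a fixed anchor-drug dose together with five library-drug doses (not always all listed) in √10 steps, by pin tool, on the day after seeding. Nuclei were counted after 5 days, and relative viability is the treated-to-vehicle ratio of nuclei counts. Values are medians of duplicate plates.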

[2] = compound: O=c1ncccn1[C@@H]1O[C@H](CO)[C@@H](O)[C@H]1O [Zebularine] + C[C@@H](Oc1cc(-c2cnn(C3CCNCC3)c2)cnc1N)c1c(Cl)ccc(F)c1Cl [Crizotinib] (partner 1 µM)
Summary of the method: as §1

[3] = compound: O=c1ncccn1[C@@H]1O[C@H](CO)[C@@H](O)[C@H]1O [Zebularine] + CC(=O)Nc1cccc(-n2c(=O)n(C3CC3)c(=O)c3c(Nc4ccc(I)cc4F)n(C)c(=O)c(C)c32)c1 [Trametinib] (partner 0.02 µM)
Summary of the method: as §1

[4] = compound: CC(C)CCN1c2nc(Nc3cc(F)c(O)c(F)c3)ncc2N(C)C(=O)C1C [BI-D1870] + O=C(c1cc(Cc2n[nH]c(=O)c3ccccc23)ccc1F)N1CCN(C(=O)C2CC2)CC1 [Olaparib] (partner 8 µM)
Summary of the method: as §1

Cell Line | relative viability ([1]; first compound 1 µM) | relative viability ([1]; first compound 3.162 µM) | relative viability ([1]; first compound 10 µM) | relative viability ([1]; first compound 31.62 µM) | relative viability ([1]; first compound 100 µM) | relative viability ([2]; first compound 1 µM) | relative viability ([2]; first compound 3.162 µM) | relative viability ([2]; first compound 10 µM) | relative viability ([2]; first compound 31.62 µM) | relative viability ([2]; first compound 100 µM) | relative viability ([3]; first compound 1 µM) | relative viability ([3]; first compound 3.162 µM) | relative viability ([3]; first compound 10 µM) | relative viability ([3]; first compound 31.62 µM) | relative viability ([3]; first compound 100 µM) | relative viability ([4]; first compound 0.04 µM) | relative viability ([4]; first compound 0.1265 µM) | relative viability ([4]; first compound 0.4 µM) | relative viability ([4]; first compound 1.265 µM) | relative viability ([4]; first compound 4 µM)
LK-2 | 0.187 | 0.181 | 0.195 | 0.202 | 0.162 | 0.217 | 0.236 | 0.266 | 0.209 | 0.23 | 0.626 | 0.669 | 0.476 | 0.459 | 0.441 | 0.913 | 0.655 | 0.683 | 0.834 | 0.71
NCI-H2126 | 0.721 | 0.718 | 0.619 | 0.8 | 0.602 | 1.11 | 0.987 | 0.958 | 0.804 | 0.503 | 0.532 | 0.561 | 0.476 | 0.557 | 0.437 | 0.97 | 0.928 | 0.895 | 0.885 | 0.859
NCI-H3122 | 1.24 | 1.03 | 0.603 | 1.03 | 0.755 | 0.268 | 0.248 | 0.243 | 0.298 | 0.235 | 0.268 | 0.294 | 0.22 | 0.283 | 0.251 | 0.576 | 0.562 | 0.566 | 0.631 | 0.588
NCI-H1975 | 0.845 | 0.695 | 0.383 | 0.335 | 0.23 | 1.02 | 1.07 | 0.513 | 0.317 | 0.265 | 0.298 | 0.268 | 0.338 | 0.283 | 0.222 | 0.869 | 0.708 | 0.784 | 0.731 | 0.499
NCI-H1944 | 0.445 | 0.466 | 0.385 | 0.434 | 0.421 | 1.21 | 1.06 | 0.681 | 0.87 | 0.666 | 0.481 | 0.411 | 0.45 | 0.498 | 0.419 | 0.455 | 0.412 | 0.368 | 0.398 | 0.367
LU99A | 0.314 | 0.278 | 0.284 | 0.294 | 0.216 | 0.683 | 0.531 | 0.383 | 0.255 | 0.153 | 0.604 | 0.503 | 0.502 | 0.329 | 0.195 | 0.274 | 0.243 | 0.264 | 0.244 | 0.229
SW 1573 | 0.603 | 0.606 | – | 0.506 | 0.443 | 0.72 | 0.776 | 0.44 | 0.831 | 0.574 | 0.577 | 0.645 | – | 0.545 | 0.61 | 0.602 | 0.415 | 0.432 | 0.419 | 0.191
NCI-H2347 | 0.444 | 0.412 | 0.443 | 0.424 | 0.393 | 0.682 | 0.676 | 0.618 | 0.516 | 0.381 | 0.294 | 0.299 | 0.237 | 0.312 | 0.235 | 0.547 | 0.589 | 0.552 | 0.633 | 0.487
